PubChem BioAssay AID179 (DTP/NCI, 2004)
Activity calls are given as the source filed them.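 The calls were made as follows: active = compounds giving half or more protection of infected cells from virus-caused growth loss, again on retest; inactive = the rest.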 Where a SMILES comes first, the peptide text is derived from it. [ ]: non-standard residue; d: D form. The star is where a group is joined. Phe(4-NO2) = N[CH](Cc1ccc([N+](=O)[O-])cc1)C(=O)O; Boc = CC(C)(C)OC(=O)*; OBn = c1ccc(CO*)cc1

Test system: CEM cells HIV-1 protection, formazan growth assay
Assay: NCI AIDS Antiviral Assay
Conditions: for IC50: measured here: growth of uninfected CEM cells
Procedure, shortened: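 Human CEM cells, uninfected and HIV-1-infected, received five drug concentrations, and growth was read by soluble formazan assay. Compounds giving at least 50% protection were retested; reproducible 100% protection defined confirmed active.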

| Compound | outcome | EC50 | IC50 |
| --- | --- | --- | --- |
| COc1ccc2c(c1)-c1c(c3cc(OC)ccc3n1CCN1CCOCC1)CC2 | inactive | – | – |
| CCCc1cc(=O)oc2c3c(c4c(c12)OC(C)(C)C=C4)O[C@H](C)[C@@H](C)[C@H]3O[Si](C)(C)C(C)(C)C | – | > 200 µM | > 200 µM |
| CC(C(=O)c1ccccc1)C1(O)C(=O)Nc2ccccc21 (configuration not stated) | inactive | – | – |
| CCN(CC)CCC(=O)N1C/C(=C/c2ccccc2)C(=O)/C(=C\c2ccccc2)C1 | – | > 200 µM | 0.407 µM |
| C1=CC(=P(c2ccccc2)(c2ccccc2)c2ccccc2)C=C1 | inactive | – | – |
| COc1cc(-c2nccc3cc(OC)c(OC)cc23)ccc1O | inactive | – | – |
| COC(=O)C(/C(=N/N)C(=O)Nc1cccc(O)c1)c1nc2ccccc2[nH]c1=O (configuration not stated) | – | > 34.7 µM | > 34.7 µM |
| C=CCCC(=O)CC(O)(C(F)(F)F)C(F)(F)F | inactive | – | – |
| COc1cc(C=C2C(=O)OC(C)(C)OC2=O)cc(OC)c1OC | – | > 776 µM | 83.2 µM |
| O/N=C1\CC2(N3CCOCC3)CCC1(c1ccccc1)CC2 | inactive | – | – |
| Cc1cccc(-n2c(C)nc3ccc(NC(=S)Nc4ccccc4)cc3c2=O)c1 | – | > 200 µM | 110 µM |
| CC(=O)N(C(C)=O)c1c(C)cc(-c2ccccc2)oc1=O | – | > 200 µM | > 200 µM |
| O=C(O)COc1ccc(O)c2c1C(=O)CCCC2=O | inactive | – | – |
| CCc1n[nH]c(=O)n1NC(=O)/C=C\C(=O)O | – | > 200 µM | > 200 µM |
| CC1(C)O[C@]2(C=C[C@@H]1O)CCCCO2 | – | > 251 µM | > 251 µM |
| Cc1nc(-n2nc(-c3ccccc3)cc2-c2ccccc2)sc1C(=O)/C=C/c1ccccc1 | – | > 16.2 µM | 8.32 µM |
| CCCCCCCCCCCCCCCCC(C(=O)O)C(=O)O | – | > 21.9 µM | > 21.9 µM |
| Clc1ccc(SSc2ccc(Cl)cn2)nc1 | – | > 200 µM | 20.4 µM |
| OC1[C@@H]2[C@@H](O)CCCN2C[C@@H](O)[C@H]1O (some centres not stated) | – | > 200 µM | > 200 µM |
| CC(C)(C)[Si](C)(C)OC1C(n2ccc(=O)[nH]c2=O)OC(COC(c2ccccc2)(c2ccccc2)c2ccccc2)C1(CC#N)Sc1ccccc1 (configuration not stated) | – | > 200 µM | > 200 µM |
| CC(C)(C)OC(=O)[C@@H]1ON2O[C@H](OC3CCCC3(c3ccccc3)c3ccccc3)C[C@H]3OC(=O)[C@@H]1[C@H]32 (some centres not stated) | – | > 200 µM | 31.6 µM |
| O=c1[nH]c2nc(SCc3ccccc3)n(Cc3ccccc3)c2c(=O)n1OS(=O)(=O)c1ccccc1 | – | > 200 µM | 75.9 µM |
| CCOC(=O)CCNC(=O)Sc1ccccc1C(=O)NCCC(N)=O | – | 1.2 µM | 110 µM |
| O=C(CC(=O)N1N=C(c2ccccc2)C(N=Nc2ccccc2[N+](=O)[O-])C1=O)Nc1ccccc1F (configuration not stated) | – | > 27.5 µM | > 27.5 µM |
| C/C(=N\N=C(/[Se])N1CC2CCC(CC2)C1)c1ccccn1 | – | > 53.7 µM | 0.17 µM |
| CO[C@@]1(c2ccccc2)O[C@H]2OCCC2[C@H]1c1ccc(Cl)cc1 (some centres not stated) | – | > 11.5 µM | > 11.5 µM |
| CCOC(=O)C1(C(=O)OCC)C=C(c2ccccc2)N(C2OC(COC(C)=O)C(OC(C)=O)C(OC(C)=O)C2OC(C)=O)C1=S (configuration not stated) | – | > 200 µM | 24.5 µM |

| Compound | outcome | EC50 | IC50 |
| --- | --- | --- | --- |
| NC(=Nc1ccc(Br)cc1)/N=C(/N)Nc1cccc(S(=O)(=O)Nc2ncc(Cl)cn2)c1 | – | > 200 µM | > 200 µM |
| COc1cc2c(c(O)c1OC)C(=O)[C@@H]1CCC(=O)N1C2 | – | > 123 µM | 112 µM |
| Cc1cc(N=Nc2ccc(Sc3ccc(N=Nc4ccc(O)c(C(=O)O)c4)cc3)cc2)c(N)c(N=Nc2ccc(N=Nc3ccc(S(=O)(=O)O)cc3)cc2)c1N | – | 5.62 µM | > 100 µM |
| O=c1[nH]cnc2c1sc(=S)n2-c1ccccc1 | – | > 100 µM | 70.8 µM |
| N#Cc1sc2c(c1OC(=O)c1ccc(Cl)cc1Cl)c(=O)n(-c1ccccc1)c(=S)n2-c1ccccc1 | – | > 200 µM | 1.23 µM |
| COc1ccccc1C=C1C(=O)OC(C)(C)OC1=O | inactive | – | – |
| CCCCOC(=O)N[C@H]1CCc2cc(OC)c(OC)c(OC)c2-c2ccc(SC)c(=O)cc21 | – | > 0.2 µM | 0.00407 µM |
| N#Cc1ccccc1Nc1ccccc1S | – | > 16.6 µM | > 16.6 µM |
| S=c1[nH]nc2scnn12 | – | > 200 µM | > 200 µM |
| OC(C#CCN1CCCC1)(c1ccccc1)c1ccccc1.[C-]#[O+].[C-]#[O+].[C-]#[O+].[C-]#[O+].[C-]#[O+].[C-]#[O+].[Co].[Co] | – | > 200 µM | 7.41 µM |
| C[C@H]1[C@H](C)CC[C@]2(C(=O)O)CCC3(COC(=O)/C=C/c4ccc(O)cc4)C(=CCC4[C@@]5(C)CC[C@H](O)C(C)(C)C5CC[C@]43C)[C@H]12 (some centres not stated) | – | > 11.5 µM | 5.37 µM |
| CC1OC(OC2C(O)COC(OC3C(C)OC(OC4C(OC(=O)[C@]56CCC(C)(C)C[C@@H]5C5=CCC7[C@@]8(C)C[C@H](O)[C@H](OC9OC(CO)C(O)C(OC%10OC(CO)C(O)C(O)C%10O)C9O)[C@@](C)(CO)[C@@H]8CC[C@@]7(C)[C@]5(C)CC6)OCC(O)C4O)C(O)C3O)C2O)C(O)C(O)C1O (some centres not stated) | – | > 58.9 µM | 21.4 µM |
| O=C1OC(C2Cc3ccc4c(c3C2=O)CCC4)c2ccccc21 (configuration not stated) | – | > 200 µM | 81.3 µM |
| CCN1CCN(c2nc3ccccc3c3c2CCOc2ccccc2-3)CC1 | inactive | – | – |
| CCCCn1cnnc1NS(=O)(=O)c1cc(C)c(Cl)cc1SCC(=O)O | – | > 200 µM | > 200 µM |
| CCOC(=O)c1sc2nc1CSc1sc(=S)sc1SCc1nc(sc1C(=O)OCC)-c1nc(c(C(=O)OCC)s1)CSc1sc(=S)sc1SCc1nc-2sc1C(=O)OCC | – | > 200 µM | > 200 µM |
| COC(=O)C(=O)C(CC(=O)Nc1cc(Cl)ccc1Cl)C(=O)OC (configuration not stated) | – | > 7.59 µM | > 7.59 µM |
| CC(=O)CC(=O)CCC(=O)Nc1cccc(C(F)(F)F)c1 | inactive | – | – |
| Cc1ccc(C)c(N2C/C(=N\NC(=O)CC#N)C(c3nc4ccccc4s3)C(=O)C2=O)c1 (configuration not stated) | inactive | – | – |
| CSC1(C)CC2C(CC1N1CCOCC1)C2(C)C (configuration not stated) | – | > 95.5 µM | > 95.5 µM |
| COC1=C2C=[N+](C)C3C(=C2C=CC1OC)Cc1cc2c(cc13)OCO2 (configuration not stated) | – | > 631 µM | 3.63 µM |
| COc1ccc(/C(C#N)=C/c2cccc([N+](=O)[O-])c2)cc1 | – | > 200 µM | > 200 µM |
| CC(=O)Oc1c(C)cc2c(c1C)C(C)CN2C(C)=O (configuration not stated) | – | > 200 µM | > 200 µM |
| Cc1cc(C)nc(Nc2nc3ccc([N+](=O)[O-])cc3[nH]2)n1 | – | > 871 µM | 407 µM |
| O=C1Nc2ccccc2C1(O)C/C(=N/O)c1ccc2ccccc2c1 (configuration not stated) | – | > 107 µM | > 107 µM |
| Cc1ccc(Oc2ccc(C(=O)c3cccc(C(=O)c4ccc(Oc5ccc(C)cc5)cc4)n3)cc2)cc1 | – | > 3.8 µM | > 3.8 µM |
| N#Cc1c(N)nc2c(c(-c3ccc(Cl)cc3)nn2-c2ccccc2)c1C#N | – | > 200 µM | > 200 µM |

| Compound | outcome | EC50 | IC50 |
| --- | --- | --- | --- |
| CCC[CH2][Sn]([CH2]CCC)([O]C(=O)C(N)CSC)[O]C(=O)C(N)CSC (configuration not stated) | – | > 18.6 µM | 0.129 µM |
| O=C(c1ccccc1)c1c2ccccn2c2cccc[n+]12 | – | > 200 µM | 53.7 µM |
| O=C(Nc1ccc(Cl)c(Cl)c1)OCn1ncc2ccc([N+](=O)[O-])cc21 | – | > 200 µM | 132 µM |
| CCN(CC)c1c(-c2ccccc2)nnc2c3ccccc3nn12 | – | > 200 µM | 24 µM |
| O=C(/C=C/c1ccc(O)c(O)c1)OCCc1cccc2ccccc12 | – | > 200 µM | 2.75 µM |
| Cc1ccccc1[P+](Cc1ccccc1)(c1ccccc1)c1ccccc1C | – | > 200 µM | 0.776 µM |
| OCCN=C1c2ccccc2C2C(c3ccccc31)C1c3ccccc3C(=NCCO)c3ccccc3C21 (configuration not stated) | – | > 200 µM | 24 µM |
| CC(C)OP(=O)(OC(C)C)C(=NCCO)NNc1ccc([N+](=O)[O-])cc1 | – | > 339 µM | 29.5 µM |
| O=C(NCCc1ccccc1)/C(=C\c1ccc(Cl)cc1Cl)NC(=O)c1ccccc1 | – | > 200 µM | > 200 µM |
| C#CCN1C(=O)CN2C(Cl)(Cl)C2(c2ccccc2)c2cc(Cl)ccc21 (configuration not stated) | – | > 200 µM | 22.9 µM |
| CNC(=S)N/N=C(C)\C(=N/NC(=S)NC)c1ccccc1 | – | > 200 µM | 29.5 µM |
| COc1cc2[nH]c3c(c2cc1OC)CCN[C@]31CC[C@]2(CC3c4c(cc(OC)c(O)c42)CCN3C)C[C@H]1OC (some centres not stated) | inactive | – | – |
| CCOc1ccccc1NC(=O)C1=C(C)NC(C)=C(C(=O)Nc2ccccc2OCC)C1c1ccc2c(c1)OCO2 | – | > 12.9 µM | > 12.9 µM |
| COc1cccc(NC(=O)/C(CS(=O)(=O)CCC(C(C)=O)C(C)=O)=N\NC(C)(C)C)c1 | – | 25.7 µM | 550 µM |
| Nc1nc2ncn(CC(O)COC(=O)c3ccccc3)c2c(=O)[nH]1 (configuration not stated) | – | > 21.9 µM | > 21.9 µM |
| N#Cc1sc2c(c1O)c(=O)n(-c1ccccc1)c(=S)n2-c1ccccc1 | – | > 661 µM | 30.9 µM |
| O=C(CC(C(=O)c1cccs1)c1ccsc1)c1ccsc1 (configuration not stated) | – | > 200 µM | 11.5 µM |
| COC(=O)C1(NC(=O)C(Cc2ccccc2)N(C(=O)OC(C)(C)C)C(=O)OC(C)(C)C)CCCC1 (configuration not stated) | – | > 200 µM | 110 µM |
| O=C(Cc1cc[n+]([O-])cc1)C(=O)Nc1cc(Cl)c(Cl)cc1Cl | – | > 692 µM | 631 µM |
| O=[N+]([O-])c1ccccc1S(=O)(=O)c1cccc2c1NCCC2 | – | 3.47 µM | 38 µM |
| N/N=C1\C(=O)N(c2ccc(Cl)c(Cl)c2)C(=O)C1C(=O)Nc1ccc(Cl)c(Cl)c1 (configuration not stated) | – | > 1.2 µM | > 1.2 µM |
| N#C/C(=C\c1ccc(O)c(O)c1)C(=O)NCc1cccc(CNC(=O)/C(C#N)=C/c2ccc(O)c(O)c2)c1 | – | > 200 µM | 10.2 µM |
| Cc1ccc(S(=O)(=O)N2c3ccccc3[C@H]3CCC=C[C@H]32)cc1 | – | > 100 µM | 6.92 µM |
| COC1(OC)C2(Cl)C(Cl)=C(Cl)C1(Cl)C1COCC12 (configuration not stated) | inactive | – | – |
| COC(=O)CCC(NC(=O)OC(C)(C)C)C(=O)NC(Cc1ccc([N+](=O)[O-])cc1)C(=O)NCC(=O)OCc1ccccc1 (configuration not stated) (Boc-Glu(OMe)-[Phe(4-NO2)]-Gly-OBn; configuration not given here) | – | > 200 µM | > 200 µM |
| Nc1nc(NCC2(CO)CC(CCc3ccccc3)C2)cc(=O)[nH]1 (configuration not stated) | – | > 200 µM | 64.6 µM |
